Measurements from patent US7399638B2, “Prediction method for lipidosis” (Takeda Pharmaceutical Company Limited, priority 2003, dated 2008).
Read-outs that look alike come from different tables or passages of the source. Marks after values point to notes of the source that are not given here.

Columns and labels:
Crj: CD(SD)IGS rats [1] = conditions: rat, gavage once daily for 3 days; printed on the line of the lowest dose, dose group unclear
Method: Each test drug was administered by gavage at a dosing liquid volume of 10 mL/kg/day once daily for 3 days (4 days for the negative control). The animals were examined for mortality, general conditions, body weight, food consumption and the like using PM4800 (Mettler) and EB3200D (Shimadzu Corporation).
Crj: CD(SD)IGS rats [2] = assay: Urinary PAG/hippuric acid ratio by 1H NMR in rats; conditions: rat urine, 3 days, mean n = 3-4
[3] = in vivo; cited from earlier work
Crj: CD(SD)IGS rats [4] = conditions: male, rat, in vivo, 3 days
Method: The following 10 kinds of commercially available drugs were examined as the test compounds for a potential of inducing PLsis by histopathological examination and peripheral blood lymphocyte testing.
The following experiments were performed using the prematurely autopsied animals.
The high-dose dosing suspension was diluted about 3 fold and 10 fold with dispersant/solvent to prepare intermediate- and low-dose dosing suspensions. […] [For LD50, the Summary Basis of Approval (FDA) for each drug was referenced to.]
The animals were examined for mortality, general conditions, body weight, food consumption and the like using PM4800 (Mettler) and EB3200D (Shimadzu Corporation).
Hematological examination was performed for parameters such as RBC count, hematocrit, hemoglobin concentration, mean corpuscular hemoglobin (MCH), mean corpuscular hemoglobin concentration (MCHC), mean corpuscular volume (MCV), platelet count, WBC count, reticulocyte count, differential WBC, and vacuolated lymphocyte ratio (for PLsis-inducing compounds only) using ADVIA120 (Bayer Medical Ltd.) and E-4000 (Sysmex Corporation).

Crj: CD(SD)IGS rats [5] = conditions: rat, in vivo

In the case of `NC12CC3CC(CC(C3)C1)C2` [Amantadine], the “death (note beside the dose)” value (Crj: CD(SD)IGS rats [1]) is reported as “(death)”, the “PAG + hippuric acid/creatinine” value (Crj: CD(SD)IGS rats [2]; 75 mg/kg/day by gavage) is reported as 1.44 and the “PAG/PAG + hippuric acid” value (Crj: CD(SD)IGS rats [2]; 75 mg/kg/day by gavage) is reported as 16.17%. For the same compound, the “PAG/creatinine (first term of PAG + hippuric acid)” value (“PAG/creatinine” below) (Crj: CD(SD)IGS rats [2]; 75 mg/kg/day by gavage) was 0.23, the PAG/hippuric acid (Crj: CD(SD)IGS rats [2]; 75 mg/kg/day by gavage) was 19.31% and the “PAG + hippuric acid/creatinine” value (Crj: CD(SD)IGS rats [2]; 250 mg/kg/day by gavage) was 1.21. For the same compound, the “PAG/PAG + hippuric acid” value (Crj: CD(SD)IGS rats [2]; 250 mg/kg/day by gavage) was 16.18%, the “PAG/creatinine” value (Crj: CD(SD)IGS rats [2]; 250 mg/kg/day by gavage) was 0.20 and the PAG/hippuric acid (Crj: CD(SD)IGS rats [2]; 250 mg/kg/day by gavage) was 19.69%. The “hippuric acid/creatinine (second term of PAG + hippuric acid)” value (Crj: CD(SD)IGS rats [2]; 250 mg/kg/day by gavage) was 1.02, the “PAG + hippuric acid/creatinine” value (Crj: CD(SD)IGS rats [2]; 750 mg/kg/day by gavage) was 0.37 and the “PAG/PAG + hippuric acid” value (Crj: CD(SD)IGS rats [2]; 750 mg/kg/day by gavage) was 56.58%. For the same compound, the “PAG/creatinine” value (Crj: CD(SD)IGS rats [2]; 750 mg/kg/day by gavage) was 0.21, the PAG/hippuric acid (Crj: CD(SD)IGS rats [2]; 750 mg/kg/day by gavage) was 130.33% and the “hippuric acid/creatinine (second term of PAG + hippuric acid)” value (Crj: CD(SD)IGS rats [2]; 750 mg/kg/day by gavage) was 0.16.
For `CN(C)CCCN1c2ccccc2CCc2ccc(Cl)cc21` [Clomipramine, clomipramine], the LD50 [3] is given as 914 mg/kg, the “death (note beside the dose)” value (Crj: CD(SD)IGS rats [1]) is given as “(death)” and the “Mean vacuolated lymphocyte ratio” value (Crj: CD(SD)IGS rats [4]; 100 mg/kg/day) is given as 2%. For the same compound, the “Mean vacuolated lymphocyte ratio” value (Crj: CD(SD)IGS rats [4]; 300 mg/kg/day) was 30%, the “Mean vacuolated lymphocyte ratio” value (Crj: CD(SD)IGS rats [4]; 1000 mg/kg/day) was 38% and the “PAG + hippuric acid/creatinine” value (Crj: CD(SD)IGS rats [2]; 100 mg/kg/day by gavage) was 1.42. The “PAG/PAG + hippuric acid” value (Crj: CD(SD)IGS rats [2]; 100 mg/kg/day by gavage) was 14.27%, the “PAG/creatinine” value (Crj: CD(SD)IGS rats [2]; 100 mg/kg/day by gavage) was 0.20 and the PAG/hippuric acid (Crj: CD(SD)IGS rats [2]; 100 mg/kg/day by gavage) was 16.79%. For the same compound, the “hippuric acid/creatinine (second term of PAG + hippuric acid)” value (Crj: CD(SD)IGS rats [2]; 100 mg/kg/day by gavage) was 1.22, the “PAG + hippuric acid/creatinine” value (Crj: CD(SD)IGS rats [2]; 300 mg/kg/day by gavage) was 0.74* and the “PAG/PAG + hippuric acid” value (Crj: CD(SD)IGS rats [2]; 300 mg/kg/day by gavage) was 33.36* %. The “PAG/creatinine” value (Crj: CD(SD)IGS rats [2]; 300 mg/kg/day by gavage) was 0.20, the PAG/hippuric acid (Crj: CD(SD)IGS rats [2]; 300 mg/kg/day by gavage) was 62.72* % and the “hippuric acid/creatinine (second term of PAG + hippuric acid)” value (Crj: CD(SD)IGS rats [2]; 300 mg/kg/day by gavage) was 0.52. For the same compound, the “Histopathological changes (PLsis): Liver” value (Crj: CD(SD)IGS rats [5]; 100 mg/kg/day) was “−”, the “Histopathological changes (PLsis): Lung” value (Crj: CD(SD)IGS rats [5]; 100 mg/kg/day) was “−” and the “Histopathological changes (PLsis): Lymph node” value (Crj: CD(SD)IGS rats [5]; 100 mg/kg/day) was “−”. The “Histopathological changes (PLsis): Others” value (Crj: CD(SD)IGS rats [5]; 100 mg/kg/day) was “−”, the “Histopathological changes (PLsis): Spleen” value (Crj: CD(SD)IGS rats [5]; 100 mg/kg/day) was “−” and the “Histopathological changes (PLsis): Liver” value (Crj: CD(SD)IGS rats [5]; 300 mg/kg/day) was “−”. The “Histopathological changes (PLsis): Lung” value (Crj: CD(SD)IGS rats [5]; 300 mg/kg/day) was “+”, the “Histopathological changes (PLsis): Lymph node” value (Crj: CD(SD)IGS rats [5]; 300 mg/kg/day) was “+” and the “Histopathological changes (PLsis): Others” value (Crj: CD(SD)IGS rats [5]; 300 mg/kg/day) was “−”. The “Histopathological changes (PLsis): Spleen” value (Crj: CD(SD)IGS rats [5]; 300 mg/kg/day) was “−”, the “Histopathological changes (PLsis): Liver” value (Crj: CD(SD)IGS rats [5]; 1000 mg/kg/day) was “+” and the “Histopathological changes (PLsis): Lung” value (Crj: CD(SD)IGS rats [5]; 1000 mg/kg/day) was “−”. For the same compound, the “Histopathological changes (PLsis): Lymph node” value (Crj: CD(SD)IGS rats [5]; 1000 mg/kg/day) was “+”, the “Histopathological changes (PLsis): Others” value (Crj: CD(SD)IGS rats [5]; 1000 mg/kg/day) was “Kidney” and the “Histopathological changes (PLsis): Spleen” value (Crj: CD(SD)IGS rats [5]; 1000 mg/kg/day) was “−”.
